How the values were obtained:
[1] = test system: Pru-GFP brain tissue cysts in Balb/c mice; assay: Treatment of Balb/c mice chronically infected with Pru-GFP; details: Balb/c mice, 1,500 Pru-GFP i.p., 5 mg/kg/day i.p. for 16 days from 28 dpi
Experimental: BALB/c male mice (Jackson Laboratory) were injected i.p. with a 200 µL suspension of 1,500 tachyzoites of the Pru-GFP strain T. gondii (type II genotype) (a gift from Laura Knoll). […] At 4 weeks post-infection, the brains of two mice were collected to check for the presence of cysts and to confirm that the mice were in the chronic stage. At this time, the remaining mice were injected i.p. daily for 16 consecutive days with 200 µL solvent (10% Kolliphor HS-15) or compounds dissolved in 10% HS-15. […] Mice were euthanized humanely 2 weeks after the final injection. The mouse brains were collected in 1 mL sterile PBS, minced with scissors, and homogenized using a glass homogenizer. Four 20 µL samples (80 µL total or 8% of sample) of each brain homogenate were placed on a glass microscope slide. Cysts were enumerated using a Delta Vision fluorescence microscope.

[2] = test system: type I/III EGS strain cysts; assay: Vacuole size of spontaneously formed EGS cysts; format: cell-based, Toxoplasma gondii; details: EGS spontaneous cysts, 3x EC50, 4 days
Experimental: (§1) Type II Me49 or Pru was differentiated using compound 1 as previously described ([50]). Confluent HFF monolayers on glass coverslips (preincubated for 2 hours with 3 µM compound 1, as described previously) were infected with 5 × 10^3 tachyzoites of the ME49 or Pru (type 2) or EGS (type I/III) strain (no compound 1 for EGS). The cells were allowed to grow and differentiate in a 37°C incubator with ambient CO2 for 3 days (EGS was allowed to spontaneously differentiate for 4 days). […] After 7 days (Me49) or 8 days (EGS) of incubation, the cells were fixed with 3% paraformaldehyde for 10 minutes, permeabilized with 0.25% Triton X-100 for 10 minutes, and then blocked in 3% bovine serum albumin for 1 hour. The coverslips were then incubated in DBA rhodamine (for Me49)([51]) or DBA lectin (a kind gift from Diego Huet for EGS) and anti-SAG1 rat antibody (a kind gift from Vern Carruthers) for 2 hours. Then, the secondary anti-rat 488 was used to visualize the SAG1 antibody. The cells were then mounted onto microscope slides with fluoromount and DAPI (4′,6-diamidino-2-phenylindole). The slides were placed in the fridge for a minimum of 24 hours before imaging on a Delta Vision microscope. The vacuole sizes were calculated using ImageJ software.

[3] = test system: Human Foreskin Fibroblasts (HFF); assay: Cytotoxicity on HFF cells (Alamar Blue); format: cell-based
Experimental: (§2) The cytotoxicity was tested using an Alamar Blue assay as described by Recher et al. ([49]).

[4] = test system: ex vivo bradyzoites of the Pru strain from chronically infected mice; assay: Ex vivo bradyzoite viability assay, Pru; format: cell-based, Toxoplasma gondii; details: 3x EC50
Experimental: (§3) Brains of chronically infected mice were collected, homogenized with seven strokes in a glass homogenizer, and then enumerated on a Delta Vision microscope [protocol adapted from reference ([45])]. Twenty-five cysts per plate were then placed in a tube for acid/pepsin (170 mM sodium chloride, 60 mM hydrochloric acid, and 0.1 mg/mL pepsin) treatment for 10 minutes in a 37°C water bath. The cysts were then neutralized with 94 mM Na2CO3. The liberated bradyzoites were then equally distributed into a 12-well plate. For the growth assay, the cells were grown in the presence of compounds or DMSO for 12 and 14 days undisturbed. For the viability assays, the cells were treated with compounds or DMSO for 4 hours before being washed with 1× PBS and then grown for 12 and 14 days in media without compounds. After 12 and 14 days, the cells were fixed with 100% ethanol and stained with 2.5× crystal violet. The control DMSO plaque image is duplicated from Fig. 2B to be used as the representative image of plaques in Fig. 2A. Plaques were quantified on a light microscope using the 4× objective and the size of the plaques was measured using Fiji (ImageJ) software.

[5] = test system: T. gondii Me49 strain (type II) tachyzoites; assay: In vitro growth inhibition of red fluorescent tachyzoites, Me49 strain; format: cell-based; details: Toxoplasma gondii, tachyzoite growth
Experimental: (§4) Experiments with T. gondii tachyzoites were carried out with parasites expressing a td-Tomato RFP ([48], [49]). For drug testing and growth assays, parasites were purified by passing them through a 25-gauge needle, followed by filtration through a 5 µm filter. Human fibroblasts were cultured in 96-well black plates for 48 (hTERT) or 120 (HFF) hours prior to the addition of 4,000 (type I) or 8,000 (type II) fluorescent tachyzoites per well. Fluorescence values were measured for up to 7 days (type I) and 21 days (type II), and both excitation (544 nm) and emission (590 nm) were read from the bottom of the plates in a Molecular Devices plate reader ([36]). The EC50s were calculated using GraphPad Prism software.

[6] = test system: in vitro derived Pru cysts; assay: Vacuole size of in vitro derived Pru cysts; format: cell-based, Toxoplasma gondii
Experimental: as §1

[7] = test system: T. gondii ATQ^R R5; assay: In vitro growth inhibition, atovaquone resistant strain R5; format: cell-based; details: Toxoplasma gondii, read-out: EC50 ATQ^R R5
Experimental: as §4

[8] = test system: hyperactivity of Balb/c mice chronically infected with Pru-GFP; assay: CageDot continuous monitoring of mouse activity during chronic infection; details: 5 mg/kg/day i.p. 16 days, 15 dpt and 2 wpt
Experimental: At this time, the remaining mice were injected i.p. daily for 16 consecutive days with 200 µL solvent (10% Kolliphor HS-15) or compounds dissolved in 10% HS-15. […] Mice were euthanized humanely 2 weeks after the final injection.
Mice were monitored during the infection using the CageDot ([30], [31]), which detects vibrations. […] Data are collected at a 100 Hz sampling rate (each second, 100 data points were collected).

[9] = test system: ex vivo bradyzoites of Me49-RFP from brains of chronically infected mice; assay: Ex vivo bradyzoite viability assay, Me49-RFP; format: cell-based, Toxoplasma gondii; details: inhibitors 4 hours then drug-free 14 days, 3x EC50
Experimental: as §3

[10] = test system: Me49-RFP brain tissue cysts in Swiss Webster mice; assay: Treatment of Swiss Webster mice chronically infected with Me49-RFP; format: in vivo, Toxoplasma gondii; details: Swiss Webster mice, 5,000 Me49-RFP i.p.
[11] = test system: C2C12 myoblasts; assay: Cytotoxicity on C2C12 myoblasts (Alamar Blue); format: cell-based
Experimental: as §2

[12] = test system: T. gondii tachyzoites; assay: EC50 against tachyzoites indicated in Fig. 1E, used to set 3x and 5x concentrations; details: Toxoplasma gondii, read-out: indicated EC50 (shown in parentheses, Fig. 1E)
[13] = test system: Me49-RFP brain tissue cysts in CBA/j mice; format: in vivo, Toxoplasma gondii; details: 500 Me49-RFP i.p., 5 mg/kg/day i.p. for 16 days from 28 dpi, brains 2 weeks after treatment
Experimental: CBA/j female mice (Jackson Laboratory) were injected i.p. with a 200 µL suspension of 500 tachyzoites of the Me49-RFP strain T. gondii (type II genotype). […] At 4 weeks post-infection, the brains of two mice were collected to check for the presence of cysts and to confirm that the mice were in the chronic stage. At this time, the remaining mice were injected i.p. daily for 16 consecutive days with 200 µL solvent (10% Kolliphor HS-15) or compounds dissolved in 10% HS-15. […] Mice were euthanized humanely 2 weeks after the final injection. The mouse brains were collected in 1 mL sterile PBS, minced with scissors, and homogenized using a glass homogenizer. Four 20 µL samples (80 µL total or 8% of sample) of each brain homogenate were placed on a glass microscope slide. Cysts were enumerated using a Delta Vision fluorescence microscope.

[14] = test system: ex vivo bradyzoites of Me49-RFP from brains of chronically infected mice; assay: Ex vivo bradyzoite growth assay, Me49-RFP; format: cell-based, Toxoplasma gondii; details: inhibitors present 14 days, 3x EC50
Experimental: as §3

[15] = test system: ex vivo bradyzoites of the Pru strain from chronically infected mice; assay: Ex vivo bradyzoite growth assay, Pru; format: cell-based, Toxoplasma gondii; details: 3x EC50
Experimental: as §3

[16] = test system: T. gondii Pru strain (type II) tachyzoites; assay: In vitro growth inhibition of red fluorescent tachyzoites, Pru strain; format: cell-based, Toxoplasma gondii; details: tachyzoite growth
Experimental: as §4

[17] = test system: toxoplasmosis relapse in patients; details: after 6 years of therapy; cited from earlier work
[18] = test system: in vitro differentiated Me49 bradyzoites (cysts); assay: Vacuole size of in vitro differentiated Me49 cysts (DBA/SAG1 IFA); format: cell-based, Toxoplasma gondii; details: positive control, concentration not stated in the sentence (Fig. 1C: 3x and 5x EC50)
Experimental: as §1

[19] = test system: T. gondii ATQ^R R4; assay: In vitro growth inhibition, atovaquone resistant strain R4; format: cell-based; details: Toxoplasma gondii, read-out: EC50 ATQ^R R4, atovaquone resistant strain R4
Experimental: as §4

[20] = test system: T. gondii RH strain (type I) tachyzoites; assay: In vitro growth inhibition of red fluorescent tachyzoites, RH strain; format: cell-based; details: Toxoplasma gondii, tachyzoite growth
Experimental: as §4

O=C1C(O)=C([C@H]2CC[C@H](c3ccc(Cl)cc3)CC2)C(=O)c2ccccc21 [Atovaquone]
reduction of cyst burden [1]: 71.9% | size of the vacuoles (cysts) [2]: reduced the size of the vacuoles | % Inhibition on HFF ([3]; 4X EC50): 4.69 ± 2.56% | % Inhibition on HFF ([3]; 10X EC50): 7.23 ± 2.29% | number of plaques, ex vivo viability [4]: significant reduction in the number of plaques | EC50 [5]: 1.53 ± 0.229 nM | vacuole size [6]: decreased the vacuole size | EC50 [7]: 1030 ± 290 nM | activity of infected mice (nightly average energy, CageDot) [8]: decreased the activity of the infected mice to similar levels of the control uninfected mice | number of plaques, ex vivo viability [9]: only a minimal impact on viability | reduction of cyst burden ([10]; ATQ at 5 mg/kg daily for 16 days): 65.5% | cyst size ([10]; daily treatment 16 days): reduced the size of the cysts | % Inhibition on C2C12 ([11]; 4X EC50): 2.61 ± 4.48% | % Inhibition on C2C12 ([11]; 10X EC50): 6.84 ± 5.34% | EC50 [12]: 10 nM | reduction in the number of cysts compared to the control [13]: 56.6% | number of plaques, ex vivo growth [14]: effective against bradyzoite growth | number of plaques, ex vivo growth [15]: significant reduction in the number of plaques | EC50 [16]: 4.17 ± 2.34 nM | patients experiencing relapse [17]: up to 75% | vacuole size [18]: reduced vacuole size | EC50 [19]: 1900 nM

CCc1nc(N)nc(N)c1-c1ccc(Cl)cc1 [Pyrimethamine]
EC50 [20]: 383 ± 78 nM | % Inhibition on HFF ([3]; 4X EC50): 0.38 ± 2.61% | % Inhibition on HFF ([3]; 10X EC50): 6.18 ± 0.98% | EC50 [5]: 1.67 ± 0.268 nM | EC50 [7]: 5.23 ± 0.221 nM | % Inhibition on C2C12 ([11]; 4X EC50): 2.39 ± 3.50% | % Inhibition on C2C12 ([11]; 10X EC50): 6.57 ± 1.31% | EC50 ([16]; Toxoplasma gondii): 43.2 ± 2.58 nM | EC50 [19]: 22.1 ± 3.52 nM

Source: publication PMC11558998, “Lipophilic bisphosphonates reduced cyst burden and ameliorated hyperactivity of mice chronically infected with Toxoplasma gondii” (mBio, 2024)
